Measurements published in the NIST ThermoML archive (doi:10.1016/j.fluid.2004.11.022).

Key:
[1] = mn = molality of the nth substance listed, in mol/kg; settings: 298.15 K, 101.3 kPa, Liquid
[2] = osmotic coefficient (dimensionless); mn = molality of the nth substance listed, in mol/kg; settings: 298.15 K, Liquid, isopiestic method

[Cl-].[Cl-].[Zn+2] [zinc chloride] + CCO
Settings | mass density [kg/m3] | osmotic coefficient
[1], m1 = 0.0018 | 785.28 | –
[1], m1 = 0.0035 | 785.46 | –
[1], m1 = 0.0053 | 785.67 | –
[1], m1 = 0.0087 | 786.03 | –
[1], m1 = 0.0106 | 786.24 | –
[1], m1 = 0.0127 | 786.47 | –
[1], m1 = 0.0167 | 786.9 | –
[1], m1 = 0.0185 | 787.09 | –
[1], m1 = 0.0227 | 787.56 | –
[1], m1 = 0.033 | 788.63 | –
[1], m1 = 0.0394 | 789.3 | –
[1], m1 = 0.0471 | 790.1 | –
[1], m1 = 0.051 | 790.5 | –
[1], m1 = 0.0551 | 790.94 | –
[1], m1 = 0.0624 | 791.69 | –
[1], m1 = 0.0691 | 792.36 | –
[1], m1 = 0.0734 | 792.8 | –
[1], m1 = 0.0781 | 793.28 | –
[1], m1 = 0.0825 | 793.72 | –
[1], m1 = 0.0921 | 794.68 | –
[1], m1 = 0.1035 | 795.81 | –
[1], m1 = 0.1713 | 802.4 | –
[1], m1 = 0.2776 | 812.39 | –
[1], m1 = 0.4056 | 824.04 | –
[1], m1 = 0.5788 | 839.34 | –
[1], m1 = 0.6875 | 848.7 | –
[1], m1 = 0.8432 | 861.8 | –
[1], m1 = 1.086 | 881.52 | –
[1], m1 = 1.132 | 885.11 | –
[1], m1 = 1.312 | 899.05 | –
[1], m1 = 1.346 | 901.59 | –
[1], m1 = 1.542 | 916.09 | –
[1], m1 = 1.689 | 926.54 | –
[1], m1 = 1.883 | 940 | –
[1], m1 = 2.041 | 950.61 | –
[1], m1 = 2.204 | 961.4 | –
[1], m1 = 2.402 | 974.29 | –
[1], m1 = 2.541 | 983.29 | –
[1], m1 = 2.776 | 998.74 | –
[2], m1 = 0.219 | – | 0.359
[2], m1 = 0.4046 | – | 0.332
[2], m1 = 0.4882 | – | 0.352
[2], m1 = 0.5854 | – | 0.358
[2], m1 = 0.7111 | – | 0.36
[2], m1 = 0.7875 | – | 0.379
[2], m1 = 0.8946 | – | 0.383
[2], m1 = 1.057 | – | 0.405
[2], m1 = 1.087 | – | 0.403
[2], m1 = 1.205 | – | 0.416
[2], m1 = 1.227 | – | 0.422
[2], m1 = 1.353 | – | 0.441
[2], m1 = 1.446 | – | 0.443
[2], m1 = 1.567 | – | 0.458
[2], m1 = 1.666 | – | 0.472
[2], m1 = 1.765 | – | 0.482
[2], m1 = 1.889 | – | 0.494
[2], m1 = 1.973 | – | 0.506
[2], m1 = 2.115 | – | 0.519
[2], m1 = 2.233 | – | 0.542
[2], m1 = 2.408 | – | 0.56
[2], m1 = 2.455 | – | 0.571
[2], m1 = 2.61 | – | 0.594
[2], m1 = 2.712 | – | 0.616
